US20250345309A1, “IMMUNE HEALTH IMPROVERS” (Amazentis SA, priority 2024, published 2025)

Assays:
Type in all cases: in vivo, human
[1] = system: PBMCs; experiment: Mitochondrial analysis of PBMCs (Mitotracker Green, MitotrackerRedCMXROS, PGC-1α, Parkin)
Protocol: PBMCs were thawed as depicted above and cultured in T cell medium (RPMI (ThermoFisher Scientific) 10% FBS (South America origin), 10 mM Hepes (Sigma), 1× Non-Essential Amino Acid, 1 mM Sodium Pyruvate, 50 μM β-Mercaptoethanol, 100 U/ml penicillin, 100 μg/ml streptomycin and 2 mM Glutamax (ThermoFisher Scientific)) overnight. After washing, cells were reconstituted in T cell medium containing respective staining agent: for labelling of mitochondrial mass, Mitotracker Green (Invitrogen) was used at a concentration of 40 nM for 30 mins at 37° C. Mitochondrial membrane potential was assessed via MitotrackerRedCMXROS. Cells were then stained with a combination of CD3 vFlour 450, PE-Cy7 CD4, APC-Cy7 CD8, CCR7 APC, CD45RA FITC and Ghost Violet510. To assess expression of peroxisome proliferator-activated receptor gamma coactivator 1-alpha (PGC-1α), cells were rested for four hours after thawing, then stained with the panel above for 15 mins at 4° C. After washing in FACS buffer, cells were permeabilized and fixed using the eBioscience™ Foxp3/Transcription Factor Staining Buffer Set, followed by staining with PGC-1α (sc-518025; D-5; Santa Cruz) antibody. To assess the expression of Parkin, cells were first stained with CD4 BV786, CD8 PECF 594, CD3 BUV 395, CD45RA FITC, CD14 eF450 and live/dead 780, followed by permeabilization and fixation with transcription factor buffer set kit (BD Biosciences). For mitochondrial analysis, cells were finally fixed in 1% PFA and analyzed on a Cytek Aurora cytometer. Samples were unmixed using reference controls generated in combination with stained Ultracomp beads (Fisher Scientific, 01-2222-41).

[2] = system: monocytes; experiment: Phagocytosis assay (pHrodo E. coli Red BioParticles); details: ex vivo, d28, 1000 mg/day oral, compared with placebo cohort
Protocol: The pHrodo™ E. coli Red BioParticles® Phagocytosis Kit for Flow Cytometry (Invitrogen) was used to assess phagocytotic capacity of monocytes. The particles were inactivated, unopsonized Escherichia coli (K-12 strain) that enables measurement of phagocytic activity based on acidification of particles as they are ingested. Thawed PBMCs were immediately used for analysis. 25 μL of E. coli Red BioParticles® were added to 0.25×10^6 PBMCs in 225 μl PBMC medium. As a negative control, 20 μL of PBS were added to 225 μl of PBMCs. Incubation was performed at 37° C. for 45 min, followed by immediate transfer on ice. Cells were then washed in FACS buffer, centrifuged at 1500 rpm for 5 min, followed by another wash step. Cells were stained for 10 min at 4° C. After washing, cells were reconstituted in PBS and subjected to analysis using a Cytek Aurora fow cytometer. Monocytes were identified as CD3−, CD16+ cells.

[3] = system: PBMCs; experiment: SCENITH mitochondrial dependency analysis of immune populations; details: d28, 1000 mg/day oral
Protocol: Single cell energetic metabolism by profiling translation inhibition (SCENITH) was used to determine metabolic dependencies of select immune populations, which was performed as described previously (R. J. Argüello et al. Cell metabolism […], 32, 1063-1075). SCENITH reagents kit (inhibitors, puromycin and antibodies) were obtained from www.scenith.com/try-it and used according to the provided protocol. In short, 0.3×10^6 PBMCs were treated for 15 min with Control (DMSO), 2-Deoxy-Glucose (2-DG; 100 mM), Oligomycin (O; 1 μM) and the combination of 2DG and Oligomycin (DGO) or Harringtonine (H; 2 μg/mL). Following metabolic inhibitors, Puromycin (final concentration 10 μg/mL) was added to cultures for 30 min. After puromycin treatment, cells were washed in PBMC was buffer and stained with the following antibodies for 15 min at 4° C.: PE-Cy7 CD4, APC Cy7 CD8, CD45RA AF700, vFkour 450 CD3, CCR7 APC, BV786 CD14 PercP5.5 CD19, PE-CF594 CD16; CD56 BV711, BV510 Viability dye.
Cells were fixed and permeabilized using the Foxp3 intracellular staining kit (Invitrogen eBioscience) for 1 h. Intracellular staining of puromycin and protein targets was performed for 1 h in diluted (10×) permeabilization buffer at 4° C. Finally, data acquisition was performed using the Cytek Aurora flow cytometer. Samples were unmixed using reference controls generated in combination with stained Ultracomp beads (Fisher Scientific, 01-2222-41) using the SpectroFlo Software. The unmixed FCS files were used for data processing and analysis using FlowJo (BD, version 10.8.1). Immune cell populations of interest were gated manually for downstream analysis. gMFI expression values for Puromycin were exported from FlowJo to calculate metabolic dependencies. The following calculations were used:
To further characterize the metabolic profile of immune cells on a single-cell resolution, we employed SCENITH, a flow-cytometry based strategy that uses incorporation of Puromycin to infer metabolic dependencies (see Argüello et al., SCENITH: A flow cytometry-based method to functionally profile energy metabolism with single cell resolution, 2020, Cell Metabolism, 32, 1063-1075).

[4] = system: plasma cytokines; experiment: Plasma cytokine measurements (LEGENDplex); details: d28 vs baseline, 1000 mg/day oral
Protocol: Inflammatory cytokines were measured using LEGENDplex™ HU Essential Immune Response Panel (BioLegend) according to the manufacturer's instructions. Plasma samples were diluted 1:1 in assay diluent as recommended and technical duplicates were used for both the standard curve and experimental samples. Analysis was performed with the provided software.

[5] = Laboratory chemistry / biochemical safety analysis
Protocol: During the baseline and follow-up visits, blood was drawn by a physician or physician's assistant to assess blood biochemistry parameters and haematology. Analysis was performed using clinically validated systems at the University Hospital Frankfurt, Germany.

[6] = after 28 days, 1000 mg/day oral

## O=c1oc2cc(O)ccc2c2ccc(O)cc12 [Urolithin A]
[1]; [6]
  Mitochondrial content in several CD8+ subsets (TN, TEM, TCM, TEFF): Increased
  Mitochondrial content of CD4+ cells: no significant change
[1]; after 28 days, 1000 mg/day oral, absent in placebo
  Mitochondrial mass: proportion of MTGHi cells in CD8+ cells: increased
[1]; after intervention period (d28), 1000 mg/day oral, no change with placebo
  PGC-1α expression in CD8+ cells: stronger expression
[1]; d28, 1000 mg/day oral
  Mitochondrial membrane potential (MMP) in CD8+ cells: significantly lower
  PGC-1α in CD4+ cells: no significant induction
  Reduction of MMP in CD4+ cells: absent
  Reduction of MMP in CD8 subsets: retained
[1]; study visits at seven days or 28 days, 1000 mg/day oral
  Parkin protein expression: Change in Parkin protein expression was detected
[2]
  Monocyte phagocytosis of E. coli particles: significantly enhanced
[3]; CD8+ cells
  Capacity to shift to OXPHOS when deprived of glycolysis: stronger capacity
  Dependence on glucose metabolism: less dependence
[3]
  Mitochondrial capacity in CD8+ subsets TN, TEM, TCM, TEEF: potentiation
  Mitochondrial capacity in total CD8+ cells: potentiates
[4]
  Plasma IFN-γ level: significantly lower
  Plasma IL-1β level: significantly lower
  Plasma IL-2 level: significantly lower
  Plasma IL-6 level: No difference
  Plasma IL-8 level: No difference
  Plasma IL-10 level: significantly lower
  Plasma TNF-α level: significantly lower
  Plasma interferon-gamma induced protein (IP-10) level: No difference
  Plasma monocyte chemoattractant protein-1 (MCP-1) level: No difference
[5]; Group A d 28, 1000 mg/day oral, d 0 0.53 ± 0.31, p 0.28 n.s.
  Bilirubin (mean ± SD): 0.49 ± 0.26 mg/dL
[5]; Group A d 28, 1000 mg/day oral, d 0 0.82 ± 0.13, p 0.80 n.s.
  Creatinine (mean ± SD): 0.81 ± 0.11 mg/dL
[5]; Group A d 28, 1000 mg/day oral, d 0 4.54 ± 0.24, p 0.85 n.s.
  Albumin (mean ± SD): 4.55 ± 0.24 g/dL
[5]; Group A d 28, 1000 mg/day oral, d 0 4.86 ± 1.43, p 0.25 n.s.
  Uric acid (mean ± SD): 5.04 ± 1.79 mg/dL
[5]; Group A d 28, 1000 mg/day oral, d 0 7.02 ± 0.38, p 0.59 n.s.
  Total Serum Protein (mean ± SD): 7.06 ± 0.35 g/dL
[5]; Group A d 28, 1000 mg/day oral, d 0 24.60 ± 15.90, p 0.07 n.s.
  gGT (mean ± SD): 27.13 ± 19.19 U/I
[5]; Group A d 28, 1000 mg/day oral, d 0 27.26 ± 11.56, p 0.76 n.s.
  AST (mean ± SD): 28.04 ± 16.10 U/I
[5]; Group A d 28, 1000 mg/day oral, d 0 28.00 ± 24.02, p 0.38 n.s.
  ALT (mean ± SD): 29.44 ± 30.27 U/I
[5]; Group A d 28, 1000 mg/day oral, d 0 66.06 ± 13.51, p 0.06 n.s.
  HDL cholesterol (mean ± SD): 62.98 ± 17.58 mg/dL
[5]; Group A d 28, 1000 mg/day oral, d 0 75.40 ± 20.60, p 0.15 n.s.
  AP (mean ± SD): 73.28 ± 19.22 U/I
[5]; Group A d 28, 1000 mg/day oral, d 0 136.6 ± 33.95, p 0.89 n.s.
  LDL cholesterol (mean ± SD): 136.2 ± 30.56 mg/dL
[5]; Group A d 28, 1000 mg/day oral, d 0 154.0 ± 98.53, p 0.53 n.s.
  Triglycerides (mean ± SD): 143.2 ± 70.34 mg/dL
[5]; Group A d 28, 1000 mg/day oral, d 0 212.5 ± 33.60, p 0.89 n.s.
  Total Cholesterol (mean ± SD): 213.0 ± 33.48 mg/dL
[5]; after the 28-day intervention period, 1000 mg/day oral
  Changes in metabolic markers, kidney function parameters and liver enzymes: No significant changes
